Data set [1] is described as follows: Solubility of the compound in DMSO up to 900 uM. Type of data set: physicochemical.
The nature of data set [2]: Solubility of the compound in DMSO at >[…] uM. Format: physicochemical.

SMILES strings stand for the structures.

As for `CO[C@@H]1O[C@H](CO)[C@H](O)[C@H](OCc2cc(-c3cccc(F)c3)nc(N)n2)[C@H]1O`, the solubility result in data set [1] is “Soluble”; in data set [2], “Insoluble”.
The corresponding values for `CO[C@@H]1O[C@H](CO)[C@H](O)[C@H](OCc2cc(-c3cccc(-c4ccccc4)c3)nc(N)n2)[C@H]1O` are “Soluble” and “Insoluble”.
The corresponding values for `CO[C@@H]1O[C@H](CO)[C@H](O)[C@H](OCc2cc(-c3ccccc3F)nc(N)n2)[C@H]1O` are “Soluble” and “Insoluble”.
For `CO[C@@H]1O[C@H](CO)[C@H](O)[C@H](OCc2cc(-c3cccc(C)c3)nc(N)n2)[C@H]1O`, in that order: “Soluble” and “Insoluble”.
With `CO[C@@H]1O[C@H](CO)[C@H](O)[C@H](OCc2cc(-c3ccc(C)cc3)nc(N)n2)[C@H]1O`, the solubility entry is reported as “Soluble” in data set [1] and “Insoluble” in data set [2].
`CO[C@@H]1O[C@H](CO)[C@H](O)[C@H](OCc2cc(-c3ccc(F)cc3)nc(N)n2)[C@H]1O`: the solubility result in data set [1] is “Soluble”; in data set [2] it was “Insoluble”.
In the case of `CO[C@@H]1O[C@H](CO)[C@H](O)[C@H](OCc2cc(-c3ccc(Br)cc3)nc(N)n2)[C@H]1O`, the solubility result in data set [1] is reported as “Soluble”; in data set [2] it was “Insoluble”.
For `CO[C@@H]1O[C@H](CO)[C@H](O)[C@H](OCc2cc(-c3ccc(-c4ccccc4)cc3)nc(N)n2)[C@H]1O`, in that order: “Soluble” and “Insoluble”.
`CO[C@@H]1O[C@H](CO)[C@H](O)[C@H](OCc2cc(-c3ccc4ccccc4c3)nc(N)n2)[C@H]1O`: the figures for the solubility entry in data set [1] and in data set [2] were “Soluble” and “Insoluble”, respectively.
Turning to `CO[C@@H]1O[C@H](CO)[C@H](O)[C@H](OCc2cc(-c3cccc4ccccc34)nc(N)n2)[C@H]1O`, the solubility entry in data set [1] was “Soluble”; in data set [2], “Insoluble”.
For `CO[C@@H]1O[C@H](CO)[C@H](O)[C@H](OCc2cc(-c3ccc(C(C)(C)C)cc3)nc(N)n2)[C@H]1O`, in that order: “Soluble” and “Insoluble”.
Take `CO[C@@H]1O[C@H](CO)[C@H](O)[C@H](OCc2cc(-c3ccc(Cl)cc3)nc(N)n2)[C@H]1O`: the solubility result in data set [1] is listed as “Soluble”; in data set [2], “Insoluble”.
The corresponding values for `CO[C@@H]1O[C@H](CO)[C@H](O)[C@H](OCc2cc(-c3cccc(Cl)c3)nc(N)n2)[C@H]1O` are “Soluble” and “Insoluble”.
As to `CO[C@@H]1O[C@H](CO)[C@H](O)[C@H](OCc2cc(-c3ccccc3)nc(N)n2)[C@H]1O`, the solubility result in data set [1] is given as “Soluble”; in data set [2], “Insoluble”.

(Values after ChEMBL document CHEMBL4373655, “Aminopyrimidine-galactose hybrids are highly selective galectin-3 inhibitors” (Medchemcomm, 2019).)
